IC50 data for 23 molecules are collected here from patent US7629341B2, “Human ADAM-10 inhibitors” (Symphony Evolution, Inc., priority 2003, dated 2009).

Broadly, the IC50 is the concentration needed to halve the response being measured.

The target in one experiment is T1, ADAM-10 (UniProt O14672).
T1 sequence (O14672 1-748): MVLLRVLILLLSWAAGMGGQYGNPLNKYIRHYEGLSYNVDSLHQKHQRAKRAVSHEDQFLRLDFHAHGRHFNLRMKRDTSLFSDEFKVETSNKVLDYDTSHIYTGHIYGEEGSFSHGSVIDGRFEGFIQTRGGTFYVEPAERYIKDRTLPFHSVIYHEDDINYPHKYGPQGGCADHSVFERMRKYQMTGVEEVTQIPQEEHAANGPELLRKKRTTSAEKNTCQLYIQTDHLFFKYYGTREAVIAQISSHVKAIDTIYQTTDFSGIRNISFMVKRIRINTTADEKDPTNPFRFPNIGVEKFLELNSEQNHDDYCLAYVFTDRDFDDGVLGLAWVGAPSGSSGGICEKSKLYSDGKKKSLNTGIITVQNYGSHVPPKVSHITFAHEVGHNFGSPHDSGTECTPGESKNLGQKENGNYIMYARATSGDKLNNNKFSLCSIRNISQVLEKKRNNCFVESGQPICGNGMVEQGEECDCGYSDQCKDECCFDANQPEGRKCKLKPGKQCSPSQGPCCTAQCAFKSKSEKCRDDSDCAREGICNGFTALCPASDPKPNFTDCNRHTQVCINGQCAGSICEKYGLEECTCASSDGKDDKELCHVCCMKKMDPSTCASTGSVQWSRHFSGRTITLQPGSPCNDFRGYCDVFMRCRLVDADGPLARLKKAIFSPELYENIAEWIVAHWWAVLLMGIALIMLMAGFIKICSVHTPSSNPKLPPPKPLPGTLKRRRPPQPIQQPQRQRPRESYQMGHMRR
Kind of experiment: ADAM-10 enzyme assay, cleavage of a fluorogenic 10-residue peptide.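 Further: mouse or human ADAM-10 at 5 nM active enzyme, pH 8.0 HEPES buffer with CaCl2 and NP-40, compounds titrated 100 µM down to 0.5 nM, fluorescence read after 16 h at room temperature.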 The experiment is classed as biochemical, mouse or human (mADAM-10 or hADAM-10). The note with it: in vitro.

The target in another experiment is MMP-13 (collagenase-3) (Homo sapiens, UniProt P45452). In words: In vitro metalloprotease inhibition, MMP-13. The experiment is classed as biochemical.
The target of experiment [1] is T2, MMP-1 (Fibroblast collagenase) (Homo sapiens, UniProt P03956).
T2 sequence (P03956 100-469): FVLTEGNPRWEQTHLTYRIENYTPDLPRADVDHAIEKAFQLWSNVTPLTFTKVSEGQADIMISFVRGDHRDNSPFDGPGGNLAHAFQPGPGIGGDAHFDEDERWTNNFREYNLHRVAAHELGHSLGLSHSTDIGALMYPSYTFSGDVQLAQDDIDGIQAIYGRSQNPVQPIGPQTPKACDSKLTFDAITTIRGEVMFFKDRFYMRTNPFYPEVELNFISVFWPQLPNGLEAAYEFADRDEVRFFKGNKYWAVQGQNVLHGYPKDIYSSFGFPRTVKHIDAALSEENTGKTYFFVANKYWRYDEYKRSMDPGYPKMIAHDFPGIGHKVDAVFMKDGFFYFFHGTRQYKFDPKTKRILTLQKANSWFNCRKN
In words: In vitro metalloprotease inhibition, MMP-1. The experiment is classed as biochemical. The text has this:
(§1) Blank cells indicate lack of data only.

Experiment [2] addresses T3, MMP-2 (72 kDa gelatinase, gelatinase A) (Homo sapiens, UniProt P08253).
T3 sequence (P08253 110-660): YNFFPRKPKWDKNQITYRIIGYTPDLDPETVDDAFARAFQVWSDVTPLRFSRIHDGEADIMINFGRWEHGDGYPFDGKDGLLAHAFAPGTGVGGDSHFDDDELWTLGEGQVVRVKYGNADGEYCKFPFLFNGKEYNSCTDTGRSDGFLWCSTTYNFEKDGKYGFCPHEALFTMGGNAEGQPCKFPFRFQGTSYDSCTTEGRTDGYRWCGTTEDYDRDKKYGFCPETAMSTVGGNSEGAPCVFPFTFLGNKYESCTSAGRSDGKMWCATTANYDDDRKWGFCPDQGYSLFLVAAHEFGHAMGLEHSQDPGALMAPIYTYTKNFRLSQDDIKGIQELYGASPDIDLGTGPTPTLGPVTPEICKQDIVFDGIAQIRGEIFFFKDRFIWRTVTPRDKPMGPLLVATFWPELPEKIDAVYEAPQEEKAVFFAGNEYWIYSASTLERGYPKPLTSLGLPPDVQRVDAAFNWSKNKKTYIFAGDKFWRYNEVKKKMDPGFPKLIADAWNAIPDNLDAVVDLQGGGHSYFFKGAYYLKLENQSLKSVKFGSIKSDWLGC
Kind of experiment: In vitro metalloprotease inhibition, MMP-2. The experiment is classed as biochemical.

Another experiment concerns the target MMP-3 (Stromelysin-1) (Homo sapiens, UniProt P08254). In words: In vitro metalloprotease inhibition, MMP-3. The experiment is classed as biochemical.
Source text: as §1

Chain of MMP-3 (Stromelysin-1) (P08254 100-477, species assumed): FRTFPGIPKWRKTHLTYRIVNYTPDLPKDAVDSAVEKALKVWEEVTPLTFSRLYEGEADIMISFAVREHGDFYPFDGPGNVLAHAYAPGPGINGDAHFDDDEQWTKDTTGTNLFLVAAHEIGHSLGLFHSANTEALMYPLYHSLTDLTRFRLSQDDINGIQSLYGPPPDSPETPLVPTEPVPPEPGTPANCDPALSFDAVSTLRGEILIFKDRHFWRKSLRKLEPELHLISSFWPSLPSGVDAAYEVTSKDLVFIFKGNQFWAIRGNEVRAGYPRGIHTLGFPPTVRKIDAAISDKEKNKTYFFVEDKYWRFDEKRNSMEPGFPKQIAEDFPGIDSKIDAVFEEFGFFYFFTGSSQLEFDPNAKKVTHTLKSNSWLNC
Experimental for ADAM-10: mADAM-10 or hADAM-10 activity was measured as the ability to cleave a 10-residue peptide (DABCYL-Leu-Leu-Ala-Gln-Lys-*-LeuArg-Ser-Ser-Arg-EDANS). […] Enzyme was diluted to a final active concentration of 5 nM in Buffer A (50 mM HEPES 8.0, 100 mM NaCl, 1 mM CaCl2 and 0.01% NP-40). Serial dilutions for compounds were performed ranging from 100 μM to 0.5 nM using a Beckman Biomek 2000 in polypropylene plates (Greiner). […] This reaction was incubated for 16 hr at RT and fluorescence was read using identical conditions.

For the molecule `CN(C)C(=O)CN1CCN(S(=O)(=O)c2cc(F)c(Oc3ccc(Cl)cc3)c(F)c2)[C@@H](C(=O)NO)C1` [Entry 20], the IC50 against ADAM-10 was less than 50 nM; on MMP-13 (collagenase-3), less than 50 nM; in experiment [1] it was greater than 20000 nM; in experiment [2], less than 50 nM; at MMP-3 (Stromelysin-1), 1000 to 20000 nM.
Consider `O=C(NO)[C@H]1CN(C(=O)OCCN2CCCCC2)CCN1S(=O)(=O)c1cc(F)c(Oc2ccc(Cl)cc2)c(F)c1` [Entry 27], for which the IC50 against ADAM-10 is less than 50 nM; against MMP-13 (collagenase-3), less than 50 nM; in experiment [1] it was 1000 to 20000 nM; in experiment [2], less than 50 nM; at MMP-3 (Stromelysin-1), 50 to 1000 nM.
Regarding `O=C(CCl)NC(=O)N1CCN(S(=O)(=O)c2cc(F)c(Oc3ccc(Cl)cc3)c(F)c2)[C@@H](C(=O)NO)C1` [Entry 33], the IC50 was less than 50 nM on ADAM-10; less than 50 nM against MMP-13 (collagenase-3); 1000 to 20000 nM in experiment [1]; less than 50 nM in experiment [2]; 50 to 1000 nM at MMP-3 (Stromelysin-1).
Consider `COCCOC(=O)N1CCN(S(=O)(=O)c2ccc(-c3cccc(F)c3)nc2)[C@@H](C(=O)NO)C1` [Entry 66], for which the IC50 against ADAM-10 was less than 50 nM; on MMP-13 (collagenase-3), less than 50 nM; in experiment [1], 50 to 1000 nM; in experiment [2], less than 50 nM; against MMP-3 (Stromelysin-1), less than 50 nM.
In the case of `O=C(NO)[C@H]1CN(S(=O)(=O)c2cc(F)c(O)c(F)c2)CCN1S(=O)(=O)c1cc(F)c(Oc2ccc(Cl)cc2)c(F)c1` [Entry 41], the IC50 against ADAM-10 is less than 50 nM; against MMP-13 (collagenase-3), less than 50 nM; in experiment [1] it was 1000 to 20000 nM; in experiment [2], less than 50 nM; against MMP-3 (Stromelysin-1), less than 50 nM.
As to `CNC(=O)CN1CCN(S(=O)(=O)c2cc(F)c(Oc3ccc(Cl)cc3)c(F)c2)[C@@H](C(=O)NO)C1` [Entry 19], the IC50 against ADAM-10 was less than 50 nM; on MMP-13 (collagenase-3), less than 50 nM; in experiment [1], greater than 20000 nM; in experiment [2], less than 50 nM; on MMP-3 (Stromelysin-1), 50 to 1000 nM.
Turning to `COCCOC(=O)N1CCN(S(=O)(=O)c2ccc(Oc3ccc4c(c3)CCCC4)nc2)[C@@H](C(=O)NO)C1` [Entry 64], the IC50 on ADAM-10 was less than 50 nM; on MMP-13 (collagenase-3), less than 50 nM; in experiment [1] it was 50 to 1000 nM; in experiment [2], less than 50 nM; against MMP-3 (Stromelysin-1), less than 50 nM.
On to `O=C(NO)[C@H]1CN(C(=O)N2CCOCC2)CCN1S(=O)(=O)c1ccc(Oc2ccc(F)cc2)cc1` [Entry 2], for which the IC50 (on ADAM-10; against MMP-13 (collagenase-3); in experiment [1]; in experiment [2]; on MMP-3 (Stromelysin-1)) was less than 50 nM throughout.
As to `O=C(O)CN1CCN(S(=O)(=O)c2cc(F)c(Oc3ccc(Cl)cc3)c(F)c2)[C@@H](C(=O)NO)C1` [Entry 63], the IC50 on ADAM-10 is 50 to 1000 nM; against MMP-13 (collagenase-3), 50 to 1000 nM; in experiment [1], greater than 20000 nM; in experiment [2] it was 50 to 1000 nM; on MMP-3 (Stromelysin-1), 1000 to 20000 nM.
Regarding `O=C(NO)[C@H]1CN(C(=O)N2CCOCC2)CCN1S(=O)(=O)c1ccc(Oc2ccc(Cl)cc2)c(F)c1` [Entry 6], the IC50 was less than 50 nM at ADAM-10; less than 50 nM on MMP-13 (collagenase-3); 50 to 1000 nM in experiment [1]; less than 50 nM in experiment [2]; less than 50 nM on MMP-3 (Stromelysin-1).
Turning to `COCCOC(=O)N1CCN(S(=O)(=O)c2ccc(Oc3ccc(Cl)cc3)c(F)c2)[C@@H](C(=O)NO)C1` [Entry 4], the 50% inhibitory concentration (IC50) against ADAM-10 was less than 50 nM; against MMP-13 (collagenase-3), less than 50 nM; in experiment [1], 50 to 1000 nM; in experiment [2], less than 50 nM; against MMP-3 (Stromelysin-1), less than 50 nM.
On to `CCCCCCC(=O)N1CCN(S(=O)(=O)c2cc(F)c(Oc3ccc(Cl)cc3)c(F)c2)[C@@H](C(=O)NO)C1` [Entry 43], for which the IC50 was less than 50 nM against ADAM-10; less than 50 nM against MMP-13 (collagenase-3); greater than 20000 nM in experiment [1]; less than 50 nM in experiment [2]; 50 to 1000 nM on MMP-3 (Stromelysin-1).
`COCCN1CCN(S(=O)(=O)c2cc(F)c(Oc3ccc(Cl)cc3)c(F)c2)[C@@H](C(=O)NO)C1` [Entry 29]: the IC50 is less than 50 nM against ADAM-10; less than 50 nM against MMP-13 (collagenase-3); 1000 to 20000 nM in experiment [1]; less than 50 nM in experiment [2]; 50 to 1000 nM at MMP-3 (Stromelysin-1).
Regarding `COCCOC(=O)N1CCN(S(=O)(=O)c2ccc(Oc3ccc(C#N)cc3)c(F)c2)[C@@H](C(=O)NO)C1` [Entry 5], the IC50 on ADAM-10 is less than 50 nM; on MMP-13 (collagenase-3), less than 50 nM; in experiment [1], 50 to 1000 nM; in experiment [2], less than 50 nM; on MMP-3 (Stromelysin-1), 50 to 1000 nM.
Regarding `COCCOC(=O)N1CCN(S(=O)(=O)c2cc(F)c(Oc3ccc(F)cc3)c(F)c2)[C@@H](C(=O)NO)C1` [Entry 10], the IC50 against ADAM-10 is less than 50 nM; against MMP-13 (collagenase-3), less than 50 nM; in experiment [1] it was 1000 to 20000 nM; in experiment [2], less than 50 nM; on MMP-3 (Stromelysin-1), 1000 to 20000 nM.
`CN1CCN(C(=O)NS(=O)(=O)N2CCN(S(=O)(=O)c3cc(F)c(Oc4ccc(Cl)cc4)c(F)c3)[C@@H](C(=O)NO)C2)CC1` [Entry 39]: the IC50 on ADAM-10 was less than 50 nM; against MMP-13 (collagenase-3), less than 50 nM; in experiment [1], 50 to 1000 nM; in experiment [2], less than 50 nM; against MMP-3 (Stromelysin-1) it was less than 50 nM.
`C=CCN1CCN(S(=O)(=O)c2cc(F)c(Oc3ccc(Cl)cc3)c(F)c2)[C@@H](C(=O)NO)C1` [Entry 62]: the IC50 was 50 to 1000 nM at ADAM-10; less than 50 nM on MMP-13 (collagenase-3); greater than 20000 nM in experiment [1]; less than 50 nM in experiment [2]; 1000 to 20000 nM at MMP-3 (Stromelysin-1).
Take `O=C(NO)[C@H]1CN(C(=O)Cc2cccnc2)CCN1S(=O)(=O)c1cc(F)c(Oc2ccc(Cl)cc2)c(F)c1` [Entry 47]: the IC50 against ADAM-10 is less than 50 nM; at MMP-13 (collagenase-3), less than 50 nM; in experiment [1], greater than 20000 nM; in experiment [2], less than 50 nM; against MMP-3 (Stromelysin-1), 50 to 1000 nM.
Consider `COCCOC(=O)N1CCN(S(=O)(=O)c2ccc(Oc3ccc(F)cc3)c(F)c2)[C@@H](C(=O)NO)C1` [Entry 3], for which the IC50 against ADAM-10 is less than 50 nM; against MMP-13 (collagenase-3), less than 50 nM; in experiment [1], 50 to 1000 nM; in experiment [2], less than 50 nM; at MMP-3 (Stromelysin-1), 1000 to 20000 nM.
Regarding `CC(C)(C)OC(=O)N1CCN(S(=O)(=O)c2cc(F)c(Oc3ccc(F)cc3)c(F)c2)[C@@H](C(=O)NO)C1` [Entry 9], the IC50 against ADAM-10 is less than 50 nM; against MMP-13 (collagenase-3), 1000 to 20000 nM; in experiment [1], 1000 to 20000 nM; in experiment [2] it was less than 50 nM; against MMP-3 (Stromelysin-1), 1000 to 20000 nM.
Consider `O=C(NO)[C@H]1CN(C(=O)C(=O)N2CCCCC2)CCN1S(=O)(=O)c1cc(F)c(Oc2ccc(Cl)cc2)c(F)c1` [Entry 35], for which the IC50 was less than 50 nM against ADAM-10; less than 50 nM against MMP-13 (collagenase-3); 1000 to 20000 nM in experiment [1]; less than 50 nM in experiment [2]; 50 to 1000 nM against MMP-3 (Stromelysin-1).
As for `N#Cc1ccc(Oc2ccc(S(=O)(=O)N3CCN(C(=O)N4CCOCC4)C[C@@H]3C(=O)NO)cc2F)cc1` [Entry 7], the IC50 is less than 50 nM on ADAM-10; less than 50 nM on MMP-13 (collagenase-3); 50 to 1000 nM in experiment [1]; less than 50 nM in experiment [2]; less than 50 nM at MMP-3 (Stromelysin-1).
As for `O=C(NO)[C@H]1CN(C(=O)CN2CCCCC2)CCN1S(=O)(=O)c1cc(F)c(Oc2ccc(Cl)cc2)c(F)c1` [Entry 26], the IC50 on ADAM-10 was less than 50 nM; at MMP-13 (collagenase-3) it was less than 50 nM; in experiment [1] it was greater than 20000 nM; in experiment [2], less than 50 nM; on MMP-3 (Stromelysin-1) it was 1000 to 20000 nM.
